# Data from ChEMBL document CHEMBL1201862, “PubChem BioAssay data set” (2004).
#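 Cells were grown in 96-well plates and exposed to each compound for 48 hours at five concentrations; endpoints were interpolated linearly between bracketing concentrations, or set to the highest concentration if not reached. The concentration for 50% growth inhibition is given as GI50.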 Active and inactive are the calls of the source. No stated cut-off is given here; in the data, active = GI50 up to about 1.1 µM and inactive = higher.
# Experiments:
# Assay in all cases: growth of human tumour cells (NCI), 48 h
# NCI/ADR-RES = system: NCI/ADR-RES
# SK-MEL-5 = system: SK-MEL-5
# NCI-H23 = system: NCI-H23
# ACHN = system: ACHN
# SW-620 = system: SW-620
# CAKI-1 = system: CAKI-1
# SNB-75 = system: SNB-75
# SK-MEL-28 = system: SK-MEL-28
# K562 = system: K562
# PC-3 = system: PC-3
# MDA-MB-435 = system: MDA-MB-435
# 786-0 = system: 786-0
# UO-31 = system: UO-31
# UACC-62 = system: UACC-62
# IGROV-1 = system: IGROV-1
# OVCAR-3 = system: OVCAR-3
# HCT-116 = system: HCT-116
# HCT-15 = system: HCT-15
# MCF7 = system: MCF7
# NCI-H226 = system: NCI-H226
# MDA-MB-231 = system: MDA-MB-231
# HOP-62 = system: HOP-62
# RPMI-8226 = system: RPMI-8226
# MDA-N = system: MDA-N
# A549 = system: A549
# Hs-578T = system: Hs-578T
# HL-60 = system: HL-60
# SK-MEL-2 = system: SK-MEL-2
# SF-268 = system: SF-268
# EKVX = system: EKVX
# NCI-H522 = system: NCI-H522
# NCI-H460 = system: NCI-H460
# BT-549 = system: BT-549
# T47D = system: T47D
# SK-OV-3 = system: SK-OV-3
# SR = system: SR
# U-251 = system: U-251
# OVCAR-5 = system: OVCAR-5
# A498 = system: A498
# COLO 205 = system: COLO 205
# Malme-3M = system: Malme-3M
# KM12 = system: KM12
# CCRF-CEM = system: CCRF-CEM
# SNB-19 = system: SNB-19
# SN12C = system: SN12C
# TK-10 = system: TK-10
# OVCAR-4 = system: OVCAR-4
# DU-145 = system: DU-145
# M14 = system: M14
# HOP-92 = system: HOP-92
# LOX IMVI = system: LOX IMVI
# SF-295 = system: SF-295
# HT-29 = system: HT-29
# RXF 393 = system: RXF 393
# UACC-257 = system: UACC-257
# OVCAR-8 = system: OVCAR-8
# MOLT-4 = system: MOLT-4
# HCC 2998 = system: HCC 2998
# SF-539 = system: SF-539
smiles,measurement,setting,value
Cc1cc2c(O)nc(N)nc2nc1C,GI50,NCI/ADR-RES,> 100 µM (inactive)
same,GI50,SK-MEL-5,> 100 µM (inactive)
same,GI50,NCI-H23,> 100 µM (inactive)
same,GI50,ACHN,> 100 µM (inactive)
same,GI50,SW-620,> 100 µM (inactive)
same,GI50,CAKI-1,> 100 µM (inactive)
same,GI50,SNB-75,> 100 µM (inactive)
same,GI50,SK-MEL-28,> 100 µM (inactive)
same,GI50,K562,> 100 µM (inactive)
same,GI50,PC-3,> 100 µM (inactive)
same,GI50,MDA-MB-435,> 100 µM (inactive)
same,GI50,786-0,> 100 µM (inactive)
same,GI50,UO-31,> 100 µM (inactive)
same,GI50,UACC-62,> 100 µM (inactive)
same,GI50,IGROV-1,> 100 µM (inactive)
same,GI50,OVCAR-3,> 100 µM (inactive)
same,GI50,HCT-116,> 100 µM (inactive)
same,GI50,HCT-15,> 100 µM
same,GI50,MCF7,> 100 µM (inactive)
same,GI50,NCI-H226,> 100 µM (inactive)
same,GI50,MDA-MB-231,> 100 µM (inactive)
same,GI50,HOP-62,> 100 µM (inactive)
same,GI50,RPMI-8226,> 100 µM (inactive)
same,GI50,MDA-N,> 100 µM (inactive)
same,GI50,A549,> 100 µM (inactive)
same,GI50,Hs-578T,> 100 µM (inactive)
same,GI50,HL-60,> 100 µM (inactive)
same,GI50,SK-MEL-2,> 100 µM (inactive)
same,GI50,SF-268,> 100 µM (inactive)
same,GI50,EKVX,> 100 µM (inactive)
same,GI50,NCI-H522,> 100 µM (inactive)
same,GI50,NCI-H460,> 100 µM (inactive)
same,GI50,BT-549,> 100 µM (inactive)
same,GI50,T47D,> 100 µM (inactive)
same,GI50,SK-OV-3,> 100 µM (inactive)
same,GI50,SR,> 100 µM (inactive)
same,GI50,U-251,> 100 µM (inactive)
same,GI50,OVCAR-5,> 100 µM (inactive)
same,GI50,A498,> 100 µM (inactive)
same,GI50,COLO 205,> 100 µM (inactive)
same,GI50,Malme-3M,> 100 µM (inactive)
same,GI50,KM12,> 100 µM (inactive)
same,GI50,CCRF-CEM,> 100 µM (inactive)
same,GI50,SNB-19,> 100 µM (inactive)
same,GI50,SN12C,> 100 µM (inactive)
same,GI50,TK-10,> 100 µM (inactive)
same,GI50,OVCAR-4,> 100 µM (inactive)
same,GI50,DU-145,> 100 µM (inactive)
same,GI50,M14,> 100 µM (inactive)
same,GI50,HOP-92,> 100 µM (inactive)
same,GI50,LOX IMVI,> 100 µM (inactive)
same,GI50,SF-295,> 100 µM (inactive)
same,GI50,HT-29,> 100 µM (inactive)
same,GI50,RXF 393,> 100 µM (inactive)
same,GI50,UACC-257,> 100 µM (inactive)
same,GI50,OVCAR-8,> 100 µM (inactive)
COC(=O)C1=C(O)C(C(=O)OC)[C@]2(O)[C@H](C(=O)OC)[C@H]1C[C@@H](c1c(Cl)cccc1Cl)[C@H]2C(=O)OC (stereo partly specified),GI50,MOLT-4,1.81 µM (inactive)
same,GI50,NCI/ADR-RES,2.04 µM (inactive)
same,GI50,SK-MEL-5,1.66 µM (inactive)
same,GI50,NCI-H23,2.02 µM (inactive)
same,GI50,ACHN,2.19 µM (inactive)
same,GI50,SW-620,2.55 µM (inactive)
same,GI50,CAKI-1,2.83 µM (inactive)
same,GI50,SNB-75,2.23 µM (inactive)
same,GI50,SK-MEL-28,2.24 µM (inactive)
same,GI50,K562,2.05 µM (inactive)
same,GI50,PC-3,1.99 µM (inactive)
same,GI50,MDA-MB-435,1.33 µM (inactive)
same,GI50,786-0,1.73 µM (inactive)
same,GI50,UO-31,1.65 µM (inactive)
same,GI50,UACC-62,2.02 µM (inactive)
same,GI50,IGROV-1,2.16 µM (inactive)
same,GI50,OVCAR-3,2.77 µM (inactive)
same,GI50,HCT-116,1.97 µM (inactive)
same,GI50,HCT-15,1.74 µM
same,GI50,MCF7,3.24 µM (inactive)
same,GI50,NCI-H226,2.14 µM (inactive)
same,GI50,MDA-MB-231,2.96 µM (inactive)
same,GI50,HOP-62,3.07 µM (inactive)
same,GI50,RPMI-8226,1.51 µM (inactive)
same,GI50,MDA-N,1.37 µM (inactive)
same,GI50,A549,2.23 µM (inactive)
same,GI50,Hs-578T,3.35 µM (inactive)
same,GI50,HL-60,5.81 µM (inactive)
same,GI50,HCC 2998,1.66 µM (inactive)
same,GI50,SK-MEL-2,1.49 µM (inactive)
same,GI50,SF-268,3.13 µM (inactive)
same,GI50,EKVX,4.25 µM (inactive)
same,GI50,NCI-H460,2.31 µM (inactive)
same,GI50,BT-549,1.88 µM (inactive)
same,GI50,T47D,3.79 µM (inactive)
same,GI50,SK-OV-3,3.96 µM (inactive)
same,GI50,SR,1.82 µM (inactive)
same,GI50,U-251,1.32 µM (inactive)
same,GI50,A498,2 µM (inactive)
same,GI50,COLO 205,2.07 µM (inactive)
same,GI50,Malme-3M,2.07 µM (inactive)
same,GI50,KM12,2.55 µM (inactive)
same,GI50,SNB-19,2.07 µM (inactive)
same,GI50,SN12C,2.23 µM (inactive)
same,GI50,OVCAR-4,3.6 µM (inactive)
same,GI50,DU-145,2.68 µM (inactive)
same,GI50,M14,1.55 µM (inactive)
same,GI50,SF-539,1.93 µM (inactive)
same,GI50,HOP-92,2.69 µM (inactive)
same,GI50,LOX IMVI,1.87 µM (inactive)
same,GI50,SF-295,2.67 µM (inactive)
same,GI50,HT-29,2.33 µM (inactive)
same,GI50,RXF 393,1.75 µM (inactive)
same,GI50,UACC-257,2.08 µM (inactive)
same,GI50,OVCAR-8,1.79 µM (inactive)
